Test results reported in patent US20240026554A1, “ANTIOXIDANT CULTURE METHOD AND ANTIOXIDANT AUXILIARY EQUIPMENT” (National Pingtung University of Science and Technology, priority 2022, published 2024).
Where two headings read alike, the source gives them in different places.

Experiments:
[1] = system: BHK21 cells infected with bovine epidemic fever virus; details: 24 hours after virus infection, hydrogen group vs hydrogen-free group
Experimental: (§1) By adding H2O2 at concentrations of 0 μM, 4 μM, 10 μM, and 20 μM, the BHK-21 cells (1×10^5/test) in the experimental group and in the control group were induced to undergo oxidation reaction. H2DCFDA was modified by cellular esterases to form a non-fluorescent H2DCF after adding H2DCFDA cell-permeant fluorescence probe.
(§2) 0.01 MOI bovine epidemic fever virus liquid (virus strain Tn88128 , References: Hsieh, Y -C.; Wang, S. -Y; Lee, Y -F.; Chen, S. -H.; Mak, P. O. T.; Chu, C. -Y. DNA sequence analysis of glycoprotein G gene of bovine ephemeral fever virus and development of a double oil emulsion vaccine against bovine ephemeral fever. J. Vet. Med. Sci. 2006, 68, 543-548) was used for infecting two groups of cells and the virus was cultured until the eighth day (day 8), the voltage was 3-5V, and the current was 0.5 A. The cell number, hydrogen concentration, viral titer and cell senescence molecular marker Cdkn2a (p16) were measured daily.
Two groups of cells infected with virus on part of the carrier sheets in the bioreactor were collected after 24 hours, and H2O2 with concentrations of 0 μM, 4 μM, 10 μM, and 20 μM was added to induce intracellular oxidation reaction, and the ROS fold changes were evaluated by the method of 2.3 in Example 2.

[2] = system: BHK21 cells infected with bovine epidemic fever virus; details: 24 hours after virus infection; experimental group vs control group
Experimental: (§3) On the second day, the antioxidant auxiliary equipment was started, and hydrogen gas was supplied at the frequency of turning on the current for 15 minutes per hour. On the third day, the frequency of the current was adjusted to the frequency of turning on the current for 15 minutes and turning off the current for 15 minutes. 0.01 MOI bovine epidemic fever virus liquid (virus strain Tn88128 , References: Hsieh, Y -C.; Wang, S. -Y; Lee, Y -F.; Chen, S. -H.; Mak, P. O. T.; Chu, C. -Y. DNA sequence analysis of glycoprotein G gene of bovine ephemeral fever virus and development of a double oil emulsion vaccine against bovine ephemeral fever. J. Vet. Med. Sci. 2006, 68, 543-548) was used for infecting two groups of cells and the virus was cultured until the eighth day (day 8), the voltage was 3-5V, and the current was 0.5 A. The cell number, hydrogen concentration, viral titer and cell senescence molecular marker Cdkn2a (p16) were measured daily.
After virus infection, the cells on the carrier sheet in the bioreactors of the experimental group and the control group were collected every day, 1 ml of CVD was added, and the number of cells was calculated on that day. The formula for calculating the cell death rate is [(total number of cells on the previous day)−(total number of cells on that day)]/(total number of cells on the previous day)*100%.

Cdkn2a (p16) = details: after hydrogen supply, on the third day; experimental vs control group
Experimental: as §3
The expression level of the cellular senescence molecule Cdkn2a (p16) is an indicator of senescent cells. […]

BHK-21 cells = details: H2O2 0, 4, 10, 20 μM; days 4, 5 and 6; hydrogen group vs hydrogen-free group
Experimental: The cells were divided into two groups to analyze the antioxidant effect. […] Following Example 1, when the antioxidant auxiliary equipment was turned on the second day (day 2), hydrogen gas was supplied at the frequency of turning on the current for 15 minutes per hour, the voltage was 3-5V, the constant current was 0.5 A, and the theoretical hydrogen production was about 466×10^−5 moles per hour. On the third day, the frequency was adjusted to turn on for 15 minutes and turn off for 15 minutes to continuously supply hydrogen gas until the end of the experiment. The voltage was 3˜5V, the constant current was 0.5 A, and the theoretical hydrogen production was about 933×10^−5 moles per hour. The culture medium was replaced on the third day, and the cells were cultured until the eighth day. Cell number, hydrogen concentrations, and reactive oxygen species (ROS) tolerance responses were measured daily.
as §1

[3] = system: hamster kidney cells (BHK21); details: bioreactor with hydrogen vs without hydrogen, hydrogen supplied from day 2, culture to day 8
Experimental: The hamster kidney cells were incubated at 37° C. in an incubator with 5.0% CO2 using MEM culture medium (Invitrogen, Gibco Co. Ltd., New York, USA, with 10% FBS). The hamster kidney cells were incubated in a cell culture flask (175T Flask) for 3 days, and then placed in a roller bottle for expanded culture for 3 days. At the beginning of the experiment, the cells were first transferred to a tidal bioreactor (Bellocell, Taiwan) with a working volume of 500 ml of culture medium for 2 days to adapt to the environment in which the hamster kidney cells could grow to a saturated number of about 3×10^9/bottle. The electrolysis-based hydrogen generator was started on day 2 for antioxidant cell culture to regulate cellular oxidative stress.
The cells were divided into two groups to analyze the antioxidant effect. […] Cell number, hydrogen concentrations, and reactive oxygen species (ROS) tolerance responses were measured daily.
The biological carriers in the bioreactors of the experimental group and the control group were collected daily, 1 ml of Crystal Violet Dye (CVD) cell counting dye was added, and the number of cells was counted and recorded using an inverted microscope.

[4] = system: bovine epidemic fever virus (strain Tn88128); details: 24 hours after virus infection (the 4th day), 0.01 MOI
Experimental: as §2
After the virus infection, the virus tier in the virus liquid was measured by the TCID50 detection method after collecting the virus liquid in the bioreactors of the experimental group and the control group every day. The virus liquid was serially diluted 10-fold with MEM to 1/10^10th of original concentration, and then inoculated into a 96-well cell culture plate at 100 μl/well (100 μl of cell fluid was already added to each well, containing 2×10^4 BHK21 cells), the BHK21 cells were cultured in a 5% CO2 incubator at 37° C. for 3 days. After cytopathic effect (CPE) was observed and recorded, TCID50 was calculated using the Reed-Muench method.

[HH] [molecular hydrogen]
ROS fold change ([1]; H2O2 10 μM): significantly reduced the ROS fold change
ROS fold change ([1]; H2O2 20 μM): significantly reduced the ROS fold change
cell consumption rate (cell death rate) [2]: greater than that of the control group
fold change of gene expression of senescence molecule Cdkn2a (p16) (Cdkn2a (p16)): decreased significantly
ROS fold change (BHK-21 cells): significantly demonstrated reduced ROS fold change
cell growth pattern / damage to cells [3]: will not cause damage to cells
virus yield relative to hydrogen-free group [4]: 16 times
